Assay results: patent US20080221100A1, “SOLUBLE EPOXIDE HYDROLASE INHIBITORS” (Arete Therapeutics, Inc., priority 2006, published 2008)

Key:
[1] = system: soluble epoxide hydrolase (sEH); test: Fluorescent assay for mouse and human soluble epoxide hydrolase (CMNPC substrate); format: biochemical, mouse or human, not specified
Excerpt: Fluorescent Assay for Mouse and Human Soluble Epoxide Hydrolase Recombinant mouse sEH (MsEH) and human sEH (HsEH) were produced in a baculovirus expression system as previously reported. Grant et al., J. Biol. Chem., 268:17628-17633 (1993); Beetham et al., Arch. Biochem. Biophys., 305:197-201 (1993). The expressed proteins were purified from cell lysate by affinity chromatography. Wixtrom et al., Anal. Biochem., 169:71-80 (1988). Protein concentration was quantified using the Pierce BCA assay using bovine serum albumin as the calibrating standard. […] They contained no detectable esterase or glutathione transferase activity which can interfere with the assay. The assay was also evaluated with similar results in crude cell lysates or homogenate of tissues. The IC50s for each inhibitor were determined according to the following procedure: Substrate: [drawing 155] […] Jones P. D. et al.; Analytical Biochemistry 2005; 343: pp. 66-75) Solutions: Bis/Tris HCl 25 mM pH 7.0 containing 0.1 mg/mL of BSA (buffer […] at 0.25 mM in DMSO. Mother solution of enzyme in buffer A (Mouse sEH at 6 μg/mL and Human sEH at 5 μg/mL). Inhibitor dissolved in DMSO at the appropriate concentration. Protocol: In a black 96 well plate, fill all the wells with 150 μL of buffer A. Add 2 μL of DMSO in well A2 and A3, and then add 2 μL of inhibitor solution in A1 and A4 through A12. Add 150 μL of buffer A in row A, then mix several time and transfer 150 μL to row B. Repeat this operation up to row H. The 150 μL removed from row H is discarded. Add 20 μL of buffer A in column 1 and 2, then add 20 μL of enzyme solution to column 3 to 12. Incubate the plate for 5 minutes in the plate reader at 30° C. During incubation prepare the working solution of substrate by mixing 3.68 mL of buffer A (4×0.920 mL) with 266 μL (2×133 μL) of substrate solution). At t=0, add 30 μL of working substrate solution with multi-channel pipette labeled “Briggs 303” and start the reading ([S]final: 5 μM). Read with ex: 330 nm (20 nm) and em: 465 nm (20 nm) every 30 second for 10 minutes. The velocities are used to analyze and calculate the IC50s.

| % Inhibition ([1]; Conc 50 nM) | melting point | % Inhibition ([1]; Conc 500 nM) | % Inhibition ([1]; Conc 200 nM) | % Inhibition ([1]; Conc 2000 nM) | Structure (SMILES) |
| --- | --- | --- | --- | --- | --- |
| 94% | 86 to 88 °C |  |  |  | O=C(Nc1cccc(F)c1)NC1CCN(S(=O)(=O)c2cccc(C(F)(F)F)c2)CC1 [Compound 28, 1-(3-Fluoro-phenyl)-3-[1-(3-trifluoromethyl-benzenesulfonyl)-piperidin-4-yl]-urea] |
| 90% | 116 to 118 °C |  |  |  | O=C(Nc1cccc(C(F)(F)F)c1)NC1CCN(S(=O)(=O)c2ccc(Cl)cc2)CC1 [Compound 30, 1-[1-(4-Chloro-benzenesulfonyl)-piperidin-4-yl]-3-(3-trifluoromethyl-phenyl)-urea] |
|  | 212 to 214 °C | 80% |  |  | CS(=O)(=O)N1CCC(NC(=O)Nc2cccc(F)c2)CC1 [Compound 31, 1-(3-Fluoro-phenyl)-3-(1-methanesulfonyl-piperidin-4-yl)-urea] |
|  | 112 to 114 °C | 80% |  |  | CC(=O)N1CCC(NC(=O)Nc2cccc(F)c2)CC1 [Compound 32, 1-(1-Acetyl-piperidin-4-yl)-3-(3-fluoro-phenyl)-urea] |
| 95% | 303 to 308 °C |  |  |  | O=C(Nc1ccc(Cl)cc1)NC1CCN(C(=O)c2ccc(N3CCOCC3)cc2)CC1 [Compound 36, 1-(4-Chlorophenyl)-3-(1-(4-morpholinobenzoyl)piperidin-4-yl)urea] |
| 98% | 312 to 315 °C |  |  |  | O=C(Nc1ccc(C(F)(F)F)cc1)NC1CCN(C(=O)c2ccc(N3CCOCC3)cc2)CC1 [Compound 37, 1-(1-(4-Morpholinobenzoyl)piperidin-4-yl)-3-(4-(trifluoromethyl)phenyl)urea] |
| 89% | 206 to 208 °C |  |  |  | CC(C)(C)OC(=O)C(C)(C)Oc1ccc(C(=O)N2CCC(NC(=O)Nc3ccc(C(F)(F)F)cc3)CC2)cc1 [Compound 38, Tert-butyl 2-methyl-2-(4-(4-(3-(4-(trifluoromethyl)phenyl)ureido)piperidine-1-carbonyl)phenoxy)propanoate] |
| 92% | 217 to 219 °C |  |  |  | Cc1nc(C(=O)N2CCC(NC(=O)Nc3ccc(C(F)(F)F)cc3)CC2)c(C)o1 [Compound 39, 1-(1-(2,5-Dimethyloxazole-4-carbonyl)piperidin-4-yl)-3-(4-(trifluoromethyl)phenyl)urea] |
| 68% | 197 to 199 °C |  |  |  | CC(C)(Oc1ccc(C(=O)N2CCC(NC(=O)Nc3ccc(C(F)(F)F)cc3)CC2)cc1)C(=O)O [Compound 40, 2-Methyl-2-(4-(4-(3-(4-(trifluoromethyl)phenyl)ureido)piperidine-1-carbonyl)phenoxy)propanoic acid] |
| 97% | 263 to 265 °C |  |  |  | CC(C)(C)C(=O)N1CCC(NC(=O)Nc2ccc(C(F)(F)F)cc2)CC1 [Compound 41, 1-(1-Pivaloylpiperidin-4-yl)-3-(4-(trifluoromethyl)phenyl)urea] |
|  | 184 to 186 °C |  | 93% |  | CC(C)(O)CCC(=O)N1CCC(NC(=O)Nc2ccc(C(F)(F)F)cc2)CC1 [Compound 47, 1-(1-(4-hydroxy-4-methylpentanoyl)piperidin-4-yl)-3-(4-(trifluoromethyl)phenyl)urea] |
|  | 158 to 160 °C |  | 90% |  | O=C(Nc1ccc(C(F)(F)F)cc1)NC1CCN(C(=O)CCO)CC1 [Compound 49, 1-(1-(3-hydroxypropanoyl)piperidin-4-yl)-3-(4-(trifluoromethyl)phenyl)urea] |
|  | 200 to 205 °C |  | 98% |  | O=C(Nc1ccc(C(F)(F)F)cc1)NC1CCN(S(=O)(=O)CCCO)CC1 [Compound 50, 1-(1-(3-hydroxypropylsulfonyl)piperidin-4-yl)-3-(4-(trifluoromethyl)phenyl)urea] |
|  | 214 to 215 °C |  |  | 100% | COCC(=O)N1CCC(NC(=O)Nc2ccc(C(F)(F)F)cc2)CC1 [Compound 51, 1-(1-(2-methoxyacetyl)piperidin-4-yl)-3-(4-(trifluoromethyl)phenyl)urea] |
